# Measurements as given in US20130237570A1 (priority 2002, published 2013).
# Read-outs that look alike come from different tables or passages of the source.
# Tests used:
# [1] = Buffer capacity determination by titration with 0.1 M HCl; format: physicochemical; conditions: without added buffering agent
# Method: Method: 10.0 ml of the respective below solutions was titrated with 0.1 M HCl to pH 7.0. The amount of 0.1 M HCl needed to decrease pH from 9.0 to 8.0 was determined
# [2] = Source text: Absorption of nicotine from the oral cavity to the systemic circulation is dependent on the pH of the saliva and the pKa of nicotine, which is about 7.8. Assuming a pH of the saliva of 6.8 only about 10% of the nicotine in saliva will be in the free base form. Thus, in order to promote absorption of nicotine in a free base form, which is the form predominantly absorbed through the mucosa, the pH of the saliva must be increased. At a pH of 8.8 about 90% of the nicotine in saliva will then be in the free base form.
# [3] = Merck Index; cited from earlier work
# [4] = smoking of a cigarette; cited from earlier work
smiles,measurement,setting,value
"CN1CCCC1c1cccnc1 (centres unmarked) [nicotine, 3-(1-methyl-2-pyrrolidinyl)-pyridine]","buffering capacity on its own, in words",[1],too weak a buffering capacity on its own
same,nicotine in saliva in the free base form,[2]; saliva pH 6.8,about 10%
same,nicotine in saliva in the free base form,[2]; saliva pH 8.8,about 90%
same,amount of nicotine that may kill an adult,[3],Approximately forty
same,time for nicotine to reach the brain after inhalation,[4],around ten
